For eight compounds, half-life results are on record in US9809623B2, “α4β7 peptide monomer and dimer antagonists” (Protagonist Therapeutics, Inc., priority 2014, dated 2017).

Molecules are shown by their SMILES. Numbered stars: 1 amine (or outer) side, 2 acyl side, 3 side chain; on linkers, the order of the positions; unused ones are H or OH. Bridge positions count the residues as written; N and C are the ends. Square brackets hold non-standard residues; d marks the D form. Peptide text beside a SMILES is read from it. I, II: the chains in the order shown. 2Nal = N[C@@H](Cc1ccc2ccccc2c1)C(=O)O; Diglycolyl = O=C(COCC(=O)[*:2])[*:1]; NMeR = CN[C@@H](CCCNC(=N)N)C(=O)O; Pen = CC(C)(S)[C@H](N)C(=O)O; dNMeK = CN[C@H](CCCCN)C(=O)O

The nature of one data set: Intestinal Wash Assay. It counts as in vitro ADME. Details: dose or concentration left out as unconfirmed. To be noted: rat, rat intestinal wash fluid (small intestine); Table 4-C, t1/2. How it is done: Intestinal wash assay solution was prepared from rats fasted for at least 6 hours prior. The animals were euthanized and a midline incision was made from the point of the jaw to the pubis. The abdomen and chest were opened by making 2 incisions through the anterior chest wall on either side. Hemostats were used to clamp off both ends of the animal's stomach—where the esophagus meets the stomach and where the stomach meets the duodenum. A hemostat was also used to clamp 2-3 cm down the intestine from where the stomach meets the duodenum.
Intestinal wash assay solution was prepared by separating 20 cm of the small intestine from the body. Once separated 20 cm, the end was clamped with a hemostat and the section cut from the body, leaving the hemostats in place on the removed section. 1 mL of chilled saline was drawn up with a 1 mL syringe. One end of the intestine was held up and the clamp removed. Approximately 2-2.5 cm of the gavage needle was inserted into the intestine, and the saline was slowly injected. The fluid was massaged down the length of the intestine using gloved fingers. The gavage needle was removed and the clamp was replaced on the end of the intestine. The intestine was sat straight and a q-tip was run firmly up and down the length of the outside of the intestine approximately 3-6 times to mix the enzymes with the saline. One end of the intestine was held up and some of the fluid was carefully moved at the top down. The clamp was removed and that end of the intestine was set into a small weigh boat on ice. The other end of the intestine was carefully picked up and held vertically. Gloved fingers were gently run down it to squeeze the fluid into the container. The previous steps saline injection and fluid procurement steps were repeated twice using only 0.5 mL of chilled saline. The sample was pipetted from the weigh boat into a centrifuge tube and placed on ice. All intestinal wash samples were spun down in a cold centrifuge at 12,000×g for 10 minutes. The supernatant from the top of each centrifuged sample was pipetted into cryotubes, and kept on ice until use.
Intestinal wash assays were performed using intestinal wash assay solution prepared as described above. A sufficient amount of rat intestinal wash was thawed. For each sample, 200 uL of rat intestinal wash fluid was pipetted into 1.5 mL Eppendorf tubes (number of tubes for experiment=number of test peptides×N). The tubes were pre-incubated for about 10 minutes in a water bath at 37° C.
Peptide working solutions ([…]) were prepared by combining 2 μl of 10 mM DMSO stock with 128 μl 100 mM Tris pH 7.5.
Peptide quench solvent (50% ACN-50% MeOH-5% Formic Acid)+IS (5 ug/ml; 1 ul of 10 mg/mL IS per 2 mL quench solvent) was prepare and a quench plate prepared and placed on ice. 200 ul of quench solution was added to each well of the quench plate for T=0, 10, 20, 30, 60 and 180 min collection.
For each test sample and a positive control, 30 ul of peptide working solution was added to a tube of intestinal wash fluid. The tube was gently vortexed and 30 ul was immediately removed and quenched in T=0 well of quench plate (pipetted directly into the quench solution). This well was covered tightly to prevent evaporation. 30 ul aliquots were removed at T=10 min, T=20 min, T=30 min, T=60 min, and T=180 min, and quenched. When all time points were collected, the quench plate was centrifuged at 10,000 rpm for 10 minutes. 150 uL of each supernatant was transferred to a polypropylene 96-well collection plate. 300 ul Mobile Phase A was added to each collection, and LC/MS/MS analysis was performed to determine the amount or concentration of peptide remaining in each test sample and positive control.
What is called half-life is how long it takes for the measured level to halve. Compound `CC(=O)N[C@H]1CSSC[C@@H](C(=O)NCC(=O)N[C@@H](CCC(=O)O)C(N)=O)NC(=O)[C@H](CC(C)C)NC(=O)[C@H]([C@@H](C)O)NC(=O)[C@H](CC(=O)O)NC(=O)[C@H](CO)NC(=O)[C@H](CCCNC(=N)N)N(C)C1=O` [compound 198, Ac-C-N-Me-R-S-D-T-L-C-G-E-NH2] (Ac-C[NMeR]SDTLCGE-NH2; disulfide 1-7) came in with a half-life of 0.5 h.

In the case of `CC(=O)N[C@@H]1C(=O)N(C)[C@@H](CCCNC(=N)N)C(=O)N[C@@H](CO)C(=O)N[C@@H](CC(=O)O)C(=O)N[C@@H]([C@@H](C)O)C(=O)N[C@@H](CC(C)C)C(=O)N[C@H](C(=O)N[C@@H](Cc2c[nH]c3ccccc23)C(=O)N[C@H](CCC(=O)O)C(=O)N[C@H](CCCCNC(=O)COCC(=O)NCCCC[C@@H](NC(=O)[C@@H](CCC(=O)O)NC(=O)[C@H](Cc2c[nH]c3ccccc23)NC(=O)[C@H]2NC(=O)[C@H](CC(C)C)NC(=O)[C@H]([C@@H](C)O)NC(=O)[C@H](CC(=O)O)NC(=O)[C@H](CO)NC(=O)[C@H](CCCNC(=N)N)N(C)C(=O)[C@@H](NC(C)=O)C(C)(C)SSC2(C)C)C(N)=O)C(N)=O)C(C)(C)SSC1(C)C` [compound 211, (Ac-Pen-N-Me-R-S-D-T-L-Pen-W-e-k-NH2)2-DIG] (I: Ac-[Pen][NMeR]SDTL[Pen]W[dE][dK]-NH2 / II: Ac-[Pen][NMeR]SDTL[Pen]W[dE][dK]-NH2; disulfide I:1-I:7, II:1-II:7 (inferred); linker I:10-II:10 via Diglycolyl (inferred)), the half-life turned out to be 2.98 h.

In turn, `CC(=O)N[C@@H]1C(=O)N(C)[C@@H](CCCNC(=N)N)C(=O)N[C@@H](CO)C(=O)N[C@@H](CC(=O)O)C(=O)N[C@@H]([C@@H](C)O)C(=O)N[C@@H](CC(C)C)C(=O)N[C@H](C(=O)N[C@@H](Cc2ccc3ccccc3c2)C(=O)N[C@@H](CCC(=O)O)C(=O)N[C@H](CCCCNC(=O)COCC(=O)NCCCC[C@@H](NC(=O)[C@H](CCC(=O)O)NC(=O)[C@H](Cc2ccc3ccccc3c2)NC(=O)[C@H]2NC(=O)[C@H](CC(C)C)NC(=O)[C@H]([C@@H](C)O)NC(=O)[C@H](CC(=O)O)NC(=O)[C@H](CO)NC(=O)[C@H](CCCNC(=N)N)N(C)C(=O)[C@@H](NC(C)=O)C(C)(C)SSC2(C)C)C(N)=O)C(N)=O)C(C)(C)SSC1(C)C` [compound 212, (Ac-Pen-N-Me-R-S-D-T-L-Pen-2-Nal-E-k-NH2)2-DIG] (I: Ac-[Pen][NMeR]SDTL[Pen][2Nal]E[dK]-NH2 / II: Ac-[Pen][NMeR]SDTL[Pen][2Nal]E[dK]-NH2; disulfide I:1-I:7, II:1-II:7 (inferred); linker I:10-II:10 via Diglycolyl (inferred)) registered a half-life of 1.63 h.

As to `CC(=O)N[C@@H]1C(=O)N(C)[C@@H](CCCNC(=N)N)C(=O)N[C@@H](CO)C(=O)N[C@@H](CC(=O)O)C(=O)N[C@@H]([C@@H](C)O)C(=O)N[C@@H](CC(C)C)C(=O)N[C@H](C(=O)N[C@@H](Cc2c[nH]c3ccccc23)C(=O)N[C@@H](CCC(=O)O)C(=O)N(C)[C@H](CCCCNC(=O)COCC(=O)NCCCC[C@H](C(N)=O)N(C)C(=O)[C@H](CCC(=O)O)NC(=O)[C@H](Cc2c[nH]c3ccccc23)NC(=O)[C@H]2NC(=O)[C@H](CC(C)C)NC(=O)[C@H]([C@@H](C)O)NC(=O)[C@H](CC(=O)O)NC(=O)[C@H](CO)NC(=O)[C@H](CCCNC(=N)N)N(C)C(=O)[C@@H](NC(C)=O)C(C)(C)SSC2(C)C)C(N)=O)C(C)(C)SSC1(C)C` [compound 214, [Ac-Pen-(N-Me-Arg)-Ser-Asp-Thr-Leu-Pen-Trp-Glu-(N-Me-D-Lys)-NH2]2-DIG] (I: Ac-[Pen][NMeR]SDTL[Pen]WE[dNMeK]-NH2 / II: Ac-[Pen][NMeR]SDTL[Pen]WE[dNMeK]-NH2; disulfide I:1-I:7, II:1-II:7 (inferred); linker I:10-II:10 via Diglycolyl (inferred)), the half-life is above 6 h.

Another data set in a line: Plasma Stability Assay. It is filed as in vitro ADME. To be noted: rat, Table 4-C, t1/2. The protocol: 0.5 mL of rat plasma (one tube per peptide, volume depends on how many time points are to be collected, 50 μL per time point) was added to each well of a 96-well polypropylene plate, and the tubes were incubated in a heated water bath, preset to 37° C. with gentle shaking. 1 μL of 10 mM peptide stock solution was added to each tub, and then 200 μL of Acetonitrile w/0.1% Formic Acid was added to each tube (1:4). Samples were collected at the following time points: 0, 10, 30, 45, 60, 120, 180 mins. When all time points were collected, the plate was centrifuged at 5000 rpm for 5 mins. LCM analysis was performed by pipetting 100 μL of each sample to appropriate well of a 96-well deep plate. 100 μL of an internal standard peptide (1 ug/mL) was added in Mobile Phase A to each well. The plate was vortexed and injected
`CC(=O)N[C@H]1CSSC[C@@H](C(=O)NCC(=O)N[C@@H](CCC(=O)O)C(=O)N[C@@H](CCCCN)C(=O)O)NC(=O)[C@H](CC(C)C)NC(=O)[C@H]([C@@H](C)O)NC(=O)[C@H](CC(=O)O)NC(=O)[C@H](CO)NC(=O)[C@H](CCCNC(=N)N)N(C)C1=O` [compound 199, Ac-C-N-Me-R-S-D-T-L-C-G-E-K-OH] (Ac-C[NMeR]SDTLCGEK-OH; disulfide 1-7) returned a half-life at 20 μM of 1.35 h.

In turn, `CC(=O)N[C@H]1CSSC[C@@H](C(=O)NCC(=O)N[C@@H](CCC(=O)O)C(=O)N[C@@H](CCCCNC(=O)COCC(=O)NCCCC[C@H](NC(=O)[C@H](CCC(=O)O)NC(=O)CNC(=O)[C@@H]2CSSC[C@H](NC(C)=O)C(=O)N(C)[C@@H](CCCNC(=N)N)C(=O)N[C@@H](CO)C(=O)N[C@@H](CC(=O)O)C(=O)N[C@@H]([C@@H](C)O)C(=O)N[C@@H](CC(C)C)C(=O)N2)C(=O)O)C(=O)O)NC(=O)[C@H](CC(C)C)NC(=O)[C@H]([C@@H](C)O)NC(=O)[C@H](CC(=O)O)NC(=O)[C@H](CO)NC(=O)[C@H](CCCNC(=N)N)N(C)C1=O` [compound 201, (Ac-C-N-Me-R-S-D-T-L-C-G-E-K-OH)2-DIG] (I: Ac-C[NMeR]SDTLCGEK-OH / II: Ac-C[NMeR]SDTLCGEK-OH; disulfide I:1-I:7, II:1-II:7 (inferred); linker I:10-II:10 via Diglycolyl (inferred)) displayed a half-life at 20 μM of 2.02 h.

With `CC(=O)N[C@H]1CSSC(C)(C)[C@@H](C(=O)N[C@H](CCCCN)C(N)=O)NC(=O)[C@H](CC(C)C)NC(=O)[C@H]([C@@H](C)O)NC(=O)[C@H](CC(=O)O)NC(=O)[C@H](CO)NC(=O)[C@H](CCCNC(=N)N)N(C)C1=O` [compound 202, Ac-C-N-Me-R-S-D-T-L-Pen-k-NH2] (Ac-C[NMeR]SDTL[Pen][dK]-NH2; disulfide 1-7), the half-life at 20 μM was above 6 h.

`CC(=O)N[C@H]1CSSC(C)(C)[C@@H](C(=O)N[C@@H](CCC(=O)O)C(=O)N[C@H](CCCCNC(=O)COCC(=O)NCCCC[C@@H](NC(=O)[C@H](CCC(=O)O)NC(=O)[C@H]2NC(=O)[C@H](CC(C)C)NC(=O)[C@H]([C@@H](C)O)NC(=O)[C@H](CC(=O)O)NC(=O)[C@H](CO)NC(=O)[C@H](CCCNC(=N)N)N(C)C(=O)[C@@H](NC(C)=O)CSSC2(C)C)C(N)=O)C(N)=O)NC(=O)[C@H](CC(C)C)NC(=O)[C@H]([C@@H](C)O)NC(=O)[C@H](CC(=O)O)NC(=O)[C@H](CO)NC(=O)[C@H](CCCNC(=N)N)N(C)C1=O` [compound 205, (Ac-C-N-Me-R-S-D-T-L-Pen-E-k-NH2)2-DIG] (I: Ac-C[NMeR]SDTL[Pen]E[dK]-NH2 / II: Ac-C[NMeR]SDTL[Pen]E[dK]-NH2; disulfide I:1-I:7, II:1-II:7 (inferred); linker I:9-II:9 via Diglycolyl (inferred)) returned a half-life at 20 μM above 6 h.

Turning to `CC(=O)N[C@@H]1C(=O)N(C)[C@@H](CCCNC(=N)N)C(=O)N[C@@H](CO)C(=O)N[C@@H](CC(=O)O)C(=O)N[C@@H]([C@@H](C)O)C(=O)N[C@@H](CC(C)C)C(=O)N[C@H](C(=O)N[C@@H](Cc2c[nH]c3ccccc23)C(=O)N[C@@H](CCC(=O)O)C(=O)N(C)[C@H](CCCCNC(=O)COCC(=O)NCCCC[C@H](C(N)=O)N(C)C(=O)[C@H](CCC(=O)O)NC(=O)[C@H](Cc2c[nH]c3ccccc23)NC(=O)[C@H]2NC(=O)[C@H](CC(C)C)NC(=O)[C@H]([C@@H](C)O)NC(=O)[C@H](CC(=O)O)NC(=O)[C@H](CO)NC(=O)[C@H](CCCNC(=N)N)N(C)C(=O)[C@@H](NC(C)=O)C(C)(C)SSC2(C)C)C(N)=O)C(C)(C)SSC1(C)C` [compound 214, [Ac-Pen-(N-Me-Arg)-Ser-Asp-Thr-Leu-Pen-Trp-Glu-(N-Me-D-Lys)-NH2]2-DIG] (I: Ac-[Pen][NMeR]SDTL[Pen]WE[dNMeK]-NH2 / II: Ac-[Pen][NMeR]SDTL[Pen]WE[dNMeK]-NH2; disulfide I:1-I:7, II:1-II:7 (inferred); linker I:10-II:10 via Diglycolyl (inferred)), the half-life at 20 μM was above 6 h.
